According to patent US20230103791A1 (GLAXOSMITHKLINE INTELLECTUAL PROPERTY DEVELOPMENT LIMITED, priority 2019, published 2023):
Read-outs that look alike come from different tables or passages of the source.

Molecular target: T1, human Nav1.8 (Homo sapiens, UniProt Q9Y5Y9)
T1 construct: expressed in transfected cells; host or cells: HEK293 (HEK293-Nav1.8)
Test: Nav1.8 sodium channels assay, QPatch 48 HTX electrophysiology in HEK293-Nav1.8 cells
Format: cell-based
Conditions: HEK293-Nav1.8, QPatch 48 HTX, half inactivation state voltage protocol (V1/2), single run or average of two or more runs, read-out: Nav1.8 pIC50 (converted)
Summary of the method: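 HEK293 cells co-expressing human Nav1.8, Navβ1 and TREK1 were voltage-clamped on QPatch 48 HTX. The V1/2 protocol ran at 0.07 Hz: hold −100 mV, 20 ms to 0 mV, 8 s at −46 mV, 20 ms at −100 mV, then 20 ms at 0 mV (P2). P2 current was fitted over 6-8 concentrations for IC50, with vehicle wells used to correct for run-down.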

T1 sequence (Q9Y5Y9 whole entry): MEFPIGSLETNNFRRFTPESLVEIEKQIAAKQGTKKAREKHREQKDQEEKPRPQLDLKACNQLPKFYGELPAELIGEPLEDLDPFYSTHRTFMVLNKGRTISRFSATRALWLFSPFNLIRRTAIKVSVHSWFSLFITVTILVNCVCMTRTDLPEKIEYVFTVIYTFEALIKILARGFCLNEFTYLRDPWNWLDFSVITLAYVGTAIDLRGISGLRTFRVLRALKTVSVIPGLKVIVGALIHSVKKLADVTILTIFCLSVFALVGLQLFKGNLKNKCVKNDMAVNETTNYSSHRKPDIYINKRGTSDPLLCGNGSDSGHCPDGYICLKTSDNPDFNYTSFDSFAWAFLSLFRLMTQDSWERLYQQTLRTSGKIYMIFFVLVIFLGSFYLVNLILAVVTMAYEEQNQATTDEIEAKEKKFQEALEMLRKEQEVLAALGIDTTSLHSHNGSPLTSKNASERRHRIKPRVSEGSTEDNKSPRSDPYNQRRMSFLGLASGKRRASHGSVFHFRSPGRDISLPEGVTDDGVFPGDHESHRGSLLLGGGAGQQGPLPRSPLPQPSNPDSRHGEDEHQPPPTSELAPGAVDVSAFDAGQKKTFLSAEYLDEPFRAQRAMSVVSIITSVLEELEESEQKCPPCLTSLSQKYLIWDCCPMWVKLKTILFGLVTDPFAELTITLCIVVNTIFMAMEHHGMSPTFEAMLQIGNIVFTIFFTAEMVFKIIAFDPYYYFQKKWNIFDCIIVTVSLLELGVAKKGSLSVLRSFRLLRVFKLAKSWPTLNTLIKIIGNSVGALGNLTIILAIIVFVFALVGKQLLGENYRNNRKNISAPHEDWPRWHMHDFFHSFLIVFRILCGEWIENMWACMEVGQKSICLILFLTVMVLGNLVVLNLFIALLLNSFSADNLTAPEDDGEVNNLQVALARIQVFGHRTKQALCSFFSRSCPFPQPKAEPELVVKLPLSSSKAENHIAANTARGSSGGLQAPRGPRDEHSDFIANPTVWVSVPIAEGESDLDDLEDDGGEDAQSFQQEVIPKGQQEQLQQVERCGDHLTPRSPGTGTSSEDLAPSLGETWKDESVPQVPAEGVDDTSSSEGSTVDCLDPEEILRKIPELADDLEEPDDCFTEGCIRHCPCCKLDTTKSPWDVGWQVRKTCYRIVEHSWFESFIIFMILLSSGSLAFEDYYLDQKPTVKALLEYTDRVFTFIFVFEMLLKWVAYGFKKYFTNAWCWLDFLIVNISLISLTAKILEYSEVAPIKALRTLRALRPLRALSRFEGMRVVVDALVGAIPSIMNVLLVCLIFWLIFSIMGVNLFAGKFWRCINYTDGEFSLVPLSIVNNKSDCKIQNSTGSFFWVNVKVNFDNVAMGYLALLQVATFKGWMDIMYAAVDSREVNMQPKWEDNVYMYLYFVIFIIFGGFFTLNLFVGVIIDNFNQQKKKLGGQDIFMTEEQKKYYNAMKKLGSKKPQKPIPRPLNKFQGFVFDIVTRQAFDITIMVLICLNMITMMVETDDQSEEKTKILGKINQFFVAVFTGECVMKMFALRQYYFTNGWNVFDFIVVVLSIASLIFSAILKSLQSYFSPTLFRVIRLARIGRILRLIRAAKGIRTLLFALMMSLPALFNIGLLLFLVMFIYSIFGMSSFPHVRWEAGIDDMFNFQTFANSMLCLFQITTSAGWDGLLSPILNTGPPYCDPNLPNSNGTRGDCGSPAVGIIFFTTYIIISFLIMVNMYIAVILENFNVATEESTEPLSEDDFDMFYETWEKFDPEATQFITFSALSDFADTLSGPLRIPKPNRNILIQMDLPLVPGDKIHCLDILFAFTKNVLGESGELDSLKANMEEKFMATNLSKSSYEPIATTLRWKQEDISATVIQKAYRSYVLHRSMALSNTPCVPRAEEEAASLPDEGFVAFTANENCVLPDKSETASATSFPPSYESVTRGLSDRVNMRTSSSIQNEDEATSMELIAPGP
T1 sequence (Q07699 19-218 partner): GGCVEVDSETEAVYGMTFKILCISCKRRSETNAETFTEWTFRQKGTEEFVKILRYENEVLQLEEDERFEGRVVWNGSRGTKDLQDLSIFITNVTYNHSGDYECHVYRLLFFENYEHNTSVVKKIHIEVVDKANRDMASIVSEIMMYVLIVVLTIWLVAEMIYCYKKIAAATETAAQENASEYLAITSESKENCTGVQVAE

Compound | IC50 (Table 1) [nM] | IC50 (Table 2) [nM]
Cc1cc(F)ccc1N1CN(c2ccc(=O)[nH]c2C)C(=O)c2ccc(Br)cc21 [drawing 298, 7-bromo-1-(4-fluoro-2-methylphenyl)-3-(2-methyl-6-oxo-1,6-dihydropyridin-3-yl)-2,3-dihydroquinazolin-4(1H)-one] | 3.16 | 
Cc1cc(F)ccc1N1CN(c2ccc(=O)[nH]c2C)C(=O)c2ccc(C#N)cc21 [drawing 299, 1-(4-fluoro-2-methylphenyl)-3-(2-methyl-6-oxo-1,6-dihydropyridin-3-yl)-4-oxo-1,2,3,4-tetrahydroquinazoline-7-carbonitrile] | 25.1 | 
Cc1cc(F)ccc1N1CN(c2ccc(=O)[nH]c2C#N)C(=O)c2ccc(C(F)(F)F)cc21 [drawing 300, 3-(1-(4-fluoro-2-methylphenyl)-4-oxo-7-(trifluoromethyl)-1,4-dihydroquinazolin-3(2H)-yl)-6-oxo-1,6-dihydropyridine-2-carbonitrile] | 251 | 
CCOc1ccc(N2CN(c3ccc(=O)[nH]c3C)C(=O)c3ccc(C(F)(F)F)cc32)cc1 [drawing 302, 1-(4-ethoxyphenyl)-3-(2-methyl-6-oxo-1,6-dihydropyridin-3-yl)-7-(trifluoromethyl)-2,3-dihydroquinazolin-4(1H)-one] | 398 | 
Cc1cc(F)ccc1N1CN(c2ccc(=O)[nH]c2C)C(=O)c2ccc(OC(F)(F)F)cc21 [drawing 303, 1-(4-fluoro-2-methylphenyl)-3-(2-methyl-6-oxo-1,6-dihydropyridin-3-yl)-7-(trifluoromethoxy)-2,3-dihydroquinazolin-4(1H)-one] | 3.16 | 
Cc1ccc2c(c1)N(c1ccc(F)cc1C)CN(c1ccc(=O)[nH]c1C)C2=O [drawing 304, 1-(4-fluoro-2-methylphenyl)-7-methyl-3-(2-methyl-6-oxo-1,6-dihydropyridin-3-yl)-2,3-dihydroquinazolin-4(1H)-one] | 1.58 | 
Cc1cc(F)ccc1N1CN(c2cc[nH]c(=O)c2)C(=O)c2ccc(C(F)(F)F)cc21 [drawing 309, 1-(4-fluoro-2-methylphenyl)-3-(2-oxo-1,2-dihydropyridin-4-yl)-7-(trifluoromethyl)-2,3-dihydroquinazolin-4(1H)-one] |  | 398

Now from value to compound:

IC50 (Table 1) [nM] | IC50 (Table 2) [nM] | Compound
251 |  | Cc1[nH]c(=O)ccc1N1CN(c2ccc(F)cc2F)c2cc(C(F)(F)F)ccc2C1=O [drawing 301, 1-(2,4-difluorophenyl)-3-(2-methyl-6-oxo-1,6-dihydropyridin-3-yl)-7-(trifluoromethyl)-2,3-dihydroquinazolin-4(1H)-one]
12.6 |  | Cc1cc(F)ccc1N1CN(c2ccc(=O)[nH]c2C)C(=O)c2cc(C(F)(F)F)ccc21 [drawing 305, 1-(4-fluoro-2-methylphenyl)-3-(2-methyl-6-oxo-1,6-dihydropyridine-3-yl)-6-(trifluoromethyl)-2,3-dihydroquinazolin-4(1H)-one]
501 |  | Cc1cc(F)ccc1N1CN(c2cnc(=O)[nH]c2)C(=O)c2ccc(C(F)(F)F)cc21 [drawing 306, 1-(4-fluoro-2-methylphenyl)-3-(2-oxo-1,2-dihydropyrimidin-5-yl)-7-(trifluoromethyl)-2,3-dihydroquinazolin-4(1H)-one]
2000 |  | Cc1cc(F)ccc1N1CN(c2ccc(=O)[nH]n2)C(=O)c2ccc(C(F)(F)F)cc21 [drawing 307, 1-(4-fluoro-2-methylphenyl)-3-(6-oxo-1,6-dihydropyridazin-3-yl)-7-(trifluoromethyl)-2,3-dihydroquinazolin-4(1H)-one]
398 |  | Cc1cc(F)ccc1N1CN(c2ncc(=O)[nH]c2C)C(=O)c2ccc(C(F)(F)F)cc21 [drawing 308, 1-(4-fluoro-2-methylphenyl)-3-(3-methyl-5-oxo-4,5-dihydropyrazin-2-yl)-7-(trifluoromethyl)-2,3-dihydroquinazolin-4(1H)-one]
 | 2510 | Cc1cc(N2CN(c3ccc(F)cc3C)c3cc(C(F)(F)F)ccc3C2=O)cc(=O)[nH]1 [drawing 310, 1-(4-fluoro-2-methylphenyl)-3-(6-methyl-2-oxo-1,2-dihydropyridin-4-yl)-7-(trifluoromethyl)-2,3-dihydroquinazolin-4(1H)-one]
 | 1000 | Cc1c[nH]c(=O)cc1N1CN(c2ccc(F)cc2C)c2cc(C(F)(F)F)ccc2C1=O [drawing 311, 1-(4-fluoro-2-methylphenyl)-3-(5-methyl-2-oxo-1,2-dihydropyridin-4-yl)-7-(trifluoromethyl)-2,3-dihydroquinazolin-4(1H)-one]
 | 1260 | Cc1cc(F)ccc1N1CN(c2cc[nH]c(=O)c2C)C(=O)c2ccc(C(F)(F)F)cc21 [drawing 312, 1-(4-fluoro-2-methylphenyl)-3-(3-methyl-2-oxo-1,2-dihydropyridin-4-yl)-7-(trifluoromethyl)-2,3-dihydroquinazolin-4(1H)-one]
